# Assay results as given in PMC7055022, “A novel TLR7 agonist as adjuvant to stimulate high quality HBsAg-specific immune responses in an HBV mouse model” (Journal of Translational Medicine, 2020).
# Biological target: T1, human TLR7 (hTLR7) (Homo sapiens, UniProt Q9NYK1)
# T1 sequence (Q9NYK1 27-1049): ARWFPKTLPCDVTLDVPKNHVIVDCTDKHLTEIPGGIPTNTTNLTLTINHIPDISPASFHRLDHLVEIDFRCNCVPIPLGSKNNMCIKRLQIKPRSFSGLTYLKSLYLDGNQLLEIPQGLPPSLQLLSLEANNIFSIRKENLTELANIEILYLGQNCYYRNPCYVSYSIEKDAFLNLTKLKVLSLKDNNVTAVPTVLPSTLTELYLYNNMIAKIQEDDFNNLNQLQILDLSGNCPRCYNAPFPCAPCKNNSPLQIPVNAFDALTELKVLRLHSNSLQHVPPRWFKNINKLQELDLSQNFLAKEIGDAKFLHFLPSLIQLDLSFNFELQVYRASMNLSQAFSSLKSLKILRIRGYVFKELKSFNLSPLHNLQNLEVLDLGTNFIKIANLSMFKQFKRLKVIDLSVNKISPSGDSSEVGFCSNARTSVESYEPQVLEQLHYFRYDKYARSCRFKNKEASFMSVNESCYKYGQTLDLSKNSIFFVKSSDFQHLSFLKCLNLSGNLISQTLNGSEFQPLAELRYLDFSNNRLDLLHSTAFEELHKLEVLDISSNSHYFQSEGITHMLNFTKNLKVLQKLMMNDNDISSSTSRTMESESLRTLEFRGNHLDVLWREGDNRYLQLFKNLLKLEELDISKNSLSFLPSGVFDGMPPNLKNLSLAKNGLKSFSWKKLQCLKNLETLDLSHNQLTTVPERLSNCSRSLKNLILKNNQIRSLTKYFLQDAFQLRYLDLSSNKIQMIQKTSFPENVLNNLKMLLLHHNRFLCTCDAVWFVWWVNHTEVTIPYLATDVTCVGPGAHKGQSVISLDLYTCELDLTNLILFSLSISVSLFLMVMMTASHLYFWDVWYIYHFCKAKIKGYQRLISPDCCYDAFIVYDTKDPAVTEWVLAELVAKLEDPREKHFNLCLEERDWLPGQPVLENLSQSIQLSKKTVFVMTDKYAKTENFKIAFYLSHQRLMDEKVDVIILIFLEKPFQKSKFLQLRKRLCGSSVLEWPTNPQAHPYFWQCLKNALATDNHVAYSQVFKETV
# Assay: HEK-Blue hTLR7 SEAP/NF-κB reporter assay (agonist; inactive in hTLR8 cells)
# Format: cell-based
smiles,measurement,value
"C=C(CC)C(=O)c1ccc(OCC(=O)NCc2ccc(Cn3c(O)nc4c(N)nc(OCCOC)nc43)cc2)c(Cl)c1Cl [compound 4, N-(4-((6-amino-8-hydroxy-2-(2-methoxyethoxy)-9H-purin-9-yl)methyl)benzyl)-2-(2,3-dichloro-4-(2-methylenebutanoyl)phenoxy)acetamide]",HEK-Blue hTLR7 SEAP/NF-κB reporter assay (agonist; inactive in hTLR8 cells),T7-EA induced more potent SEAP reaction than T7 in HEK-Blue hTLR7 reporter cells
